From patent US12297179B2, “Crystalline and salt forms of an organic compound and pharmaceutical compositions thereof” (Servier Pharmaceuticals LLC, priority 2018, dated 2025)
Where a name gives a salt, the structure may show the parent alone. Marks after values point to notes of the source that are not given here.

Tests used:
[1] = Kinetic solubility in bio-relevant media (SGF/FaSSGF, FaSSIF, FeSSIF) and H2O at 37° C., with pH of supernatant; assay type: physicochemical; conditions: for solubility at 15 min / solubility at 30 min / solubility at 1 h / solubility at 2 h / solubility at 24 h: 37 °C, thermodynamic from solid; for Solubility: 37° C.
Method: (§1) Weigh 100 mg of sodium chloride into a 50-mL volumetric flask. Add appropriate volume of purified water and sonicate until all solids are completely dissolved. Add sufficient purified water closely to the target volume and adjust to pH 1.6. Weigh 3 mg of FaSSIF/FeSSIF/FaSSGF powder into the volumetric flask and sonicate until the powder is completely dissolved. Dilute to target volume with purified water and mix well.
as §1, with “0.170 g of monobasic sodium phosphate, 0.021 g of sodium hydroxide and 0.31 g” for “100 mg”, “6.5.” for “1.6.”, “110” for “3”
as §1, with “0.41 mL of glacial acetic acid, 0.202 g of sodium hydroxide and 0.594 g” for “100 mg”, “5.0.” for “1.6.”, “560” for “3”
An Agilent 1260 HPLC with DAD detector was utilized and detailed chromatographic conditions for solubility analysis are listed in Table 5.
Kinetic solubility of Tris salt Form A and free acid Form D were measured in three bio-relevant media (SGF, FaSSIF and FeSSIF) at 37° C. In details, ˜30 mg solids were suspended into 4.0 mL of each medium initially and equilibrated via shaking (500 rpm) at 37° C. Approximately 0.8 mL suspension was extracted at each time point of 15/30/60/120 mins and 24 hrs. The supernatant and precipitate were separated by centrifugation (10000 rpm, ˜3 mins) followed by concentration (HPLC) and pH measurement for supernatant and the corresponding solid forms were characterized by XRPD.
Due to the thermodynamic stability of Tris salt Form C, further evaluation was conducted, including kinetic solubility in three bio-relevant media (FaSSGF/FaSSF/FeSSIF) and H2O at 37° C.

[2] = Hygroscopicity by dynamic vapor sorption (DVS); assay type: physicochemical
Method: DVS was measured via a SMS (Surface Measurement Systems) DVS Intrinsic. The relative humidity at 25° C. was calibrated against deliquescence point of LiCl, Mg(NO3)2 and KCl.

[3] = Thermodynamic stability: slurry competition between Tris salt Forms A and C; assay type: physicochemical; conditions: DMSO/EtOH (1:8, v/v) and EtOH, 5° C./RT/50° C./75° C., 7 days
Method: The thermodynamic stability relationship between Tris salt Forms A and C was investigated via slurry competition experiments in 2 process related solvent systems, DMSO/EtOH (1:8, v/v) and EtOH at 4 temperature conditions (5° C./RT/50° C./75° C.). Two stages of slurry competition experiments were conducted, of which the first stage included temperature as a variable and the second stage used newly opened reagents to minimize the effect of absorbed moisture. Typical experimental procedures are described below.
About 5-10 mg of crystalline Tris salt Form C was first dissolved in ˜1.0 mL of corresponding solvent to form nearly saturated solution under corresponding temperature (equilibrating method: stirring magnetically, ˜1000 rpm, ˜2 hrs). Then ˜15 mg of each form (crystalline Tris salt Forms A and C) was physically mixed, followed by addition of the nearly saturated solution to form a suspension. The suspensions were then stirred (˜1000 rpm) under corresponding temperature for 7 days (a small amount of solids were sampled at 2 day point in the second stage experiments). The obtained solids were isolated via centrifugation (10000 rpm, 2 mins) and tested by XRPD to confirm the form.

[4] = Sprague Dawley, rat, in vivo, po, 100 mg/kg
Method: The objective of the pharmacokinetic (PK) studies was to determine the pharmacokinetics of the different forms of Compound 1 in intact Sprague Dawley rats after oral (PO) administration. […] Food and water were available to all animals ad libitum and Compound 1 or Tris salt Form C of Compound was dosed orally at 100 mg/kg (100 mL/kg). Approximately 110 μL of whole blood was collected via tail vein bleeding predose and at 0.083, 0.25, 0.5, 1, 2, 4, 8, 12 and 24 hours postdose into tubes containing the anticoagulant K2EDTA, processed to obtain plasma, and stored at approximately −70° C. until analysis. Concentrations of the active pharmaceutical ingredient in plasma samples were quantified using a nonvalidated liquid chromatography with tandem mass spectrometry (LC-MS/MS) method. Pharmacokinetic analysis of the individual plasma concentration data was performed using WinNonlin© (Version 6.4; Pharsight Corporation, Mountain View, CA, USA). Pharmacokinetic parameters were estimated using a noncompartmental extravascular models method. Area under the concentration-time curve (AUC) was calculated using the linear trapezoidal rule. […] Concentrations that were <80% of the LLOQ were designated as BLQ.

Compound `Cc1ccccc1-c1ccc(-c2cc(C(=O)O)c3c(c2)nnn3C)cc1` [Tris salt Form C] has a solubility at 15 min ([1]; FaSSIF, pH 6.5, fassif, Table 12, FaSSIF, 15 min) of 390 µg/mL, a solubility at 30 min ([1]; FaSSIF, pH 6.5, fassif, Table 12, FaSSIF, 30 min) of 320 µg/mL and a solubility at 1 h ([1]; FaSSIF, pH 6.5, fassif, Table 12, FaSSIF, 1 h) of 250 µg/mL. For the same compound, the solubility at 2 h ([1]; FaSSIF, pH 6.5, fassif, Table 12, FaSSIF, 2 h) was 220 µg/mL, the solubility at 24 h ([1]; FaSSIF, pH 6.5, fassif, Table 12, FaSSIF, 24 h) was 170 µg/mL and the solubility at 15 min ([1]; FeSSIF, pH 5, fessif, Table 12, FeSSIF, 15 min) was 330 µg/mL. The solubility at 30 min ([1]; FeSSIF, pH 5, fessif, Table 12, FeSSIF, 30 min) was 270 µg/mL, the solubility at 1 h ([1]; FeSSIF, pH 5, fessif, Table 12, FeSSIF, 1 h) was 50 µg/mL and the solubility at 2 h ([1]; FeSSIF, pH 5, fessif, Table 12, FeSSIF, 2 h) was 40 µg/mL. The solubility at 24 h ([1]; FeSSIF, pH 5, fessif, Table 12, FeSSIF, 24 h) was 40 µg/mL, the Solubility ([1]; Table 12, FaSSGF, 15 min) was “<LOD” and the Solubility ([1]; Table 12, FaSSGF, 30 min) was “<LOD”. For the same compound, the Solubility ([1]; Table 12, FaSSGF, 1 h) was “<LOD”, the Solubility ([1]; Table 12, FaSSGF, 2 h) was “<LOD” and the Solubility ([1]; Table 12, FaSSGF, 24 h) was “<LOD”. For the same compound, the pH ([1]; Table 12, FaSSGF, 15 min) was 3.0, the pH ([1]; Table 12, FaSSGF, 30 min) was 3.1 and the pH ([1]; Table 12, FaSSGF, 1 h) was 4.0. The pH ([1]; Table 12, FaSSGF, 2 h) was 4.1, the pH ([1]; Table 12, FaSSGF, 24 h) was 3.1 and the pH ([1]; Table 12, FaSSIF, 15 min) was 7.7. For the same compound, the pH ([1]; Table 12, FaSSIF, 30 min) was 7.8, the pH ([1]; Table 12, FaSSIF, 1 h) was 7.8 and the pH ([1]; Table 12, FaSSIF, 2 h) was 7.8. For the same compound, the pH ([1]; Table 12, FaSSIF, 24 h) was 7.9, the pH ([1]; Table 12, FeSSIF, 15 min) was 5.5* and the pH ([1]; Table 12, FeSSIF, 30 min) was 5.6*. For the same compound, the pH ([1]; Table 12, FeSSIF, 1 h) was 5.6, the pH ([1]; Table 12, FeSSIF, 2 h) was 5.6 and the pH ([1]; Table 12, FeSSIF, 24 h) was 5.6. It also gave a pH ([1]; Table 12, H2O, 15 min) of 8.9, a pH ([1]; Table 12, H2O, 30 min) of 9.0 and a pH ([1]; Table 12, H2O, 1 h) of 9.0. For the same compound, the pH ([1]; Table 12, H2O, 2 h) was 9.0, the pH ([1]; Table 12, H2O, 24 h) was 9.2 and the solubility at 15 min ([1]; water, Table 12, H2O, 15 min) was 810 µg/mL. It also gave a solubility at 30 min ([1]; water, Table 12, H2O, 30 min) of 820 µg/mL, a solubility at 1 h ([1]; water, Table 12, H2O, 1 h) of 720 µg/mL and a solubility at 2 h ([1]; water, Table 12, H2O, 2 h) of 750 µg/mL. For the same compound, the solubility at 24 h ([1]; water, Table 12, H2O, 24 h) was 400 µg/mL, the “solid form after the DVS test (XRPD)” value ([2]; 25° C.) was “remained as Tris salt Form C” and the moisture uptake ([2]; DVS, humidity varied from 0% RH to 80% RH at 25° C.) was about 0.04 wt %. For the same compound, the “form after slurry competition (XRPD), thermodynamic stability” value [3] was “thermodynamically more stable”.
With `Cc1ccccc1-c1ccc(-c2cc(C(=O)O)c3c(c2)nnn3C)cc1` [Tris salt, 1-methyl-5-(2′-methyl-[1,1′-biphenyl]-yl)-1H-benzo[d][1,2,3]triazole-7-carboxylate Tris salt] the “Cmax, fold higher than best free acid batch Lot B” value [4] was about 1.5 fold and the “Tmax, fold lower than best free acid batch Lot B” value [4] was about 2 fold.
